According to article PMC8469489, “Effect of Lactic Acid Bacteria on the Pharmacokinetics and Metabolism of Ginsenosides in Mice” (Pharmaceutics, 2021):
One block for each compound: values may come before it.

What was measured:
[1] = tested on: lactic acid bacteria (LAB); experiment: Incubation of single ginsenoside with LAB (formation rate of metabolite ginsenoside); assay type: in vitro ADME; settings: 7 days, 37 °C, MRS broth
Experimental: To compare the involvement of LAB on individual ginsenoside, an aliquot (10 μL) of each ginsenoside stock solution (10 mM in methanol) was mixed with autoclaved MRS broth (550 mg/10 mL in distilled water) and added 2 g of LAB (contained 1 billion CFU). Then, the mixture was incubated for 7 days in a shaking incubator at 37 °C and 300 rpm. For the analysis of ginsenosides, 0.2 mL aliquot of incubation mixture was collected every 24 h for 7 days. The incubation medium was diluted 100-fold with distilled water and stored at −80 °C. For the ginsenoside analysis, 200 μL of an IS solution (0.05 ng/mL berberine in methanol) was added to 30 μL of 100-fold diluted samples.

[2] = tested on: lactic acid bacteria (LAB); experiment: In vitro RGE fermentation with LAB; settings: 7 days incubation
[3] = Recovery of ginsenosides from urine and feces for 48 h after RGE, amoxicillin vs control; settings: for Fecal recovery, change by the amoxicillin treatment: feces 48 h after single oral RGE 2 g/kg, vs control; for Ginsenosides identified in urine: urine 48 h after single oral RGE 2 g/kg
Experimental: Aliquots (200 μL) of an IS (0.05 ng/mL berberine in methanol) were added to 30 μL of plasma or urine samples. Aliquots (600 μL) of an IS methanol solution containing 0.05 ng/mL berberine were added to 100 μL of 10% feces homogenate samples. […] After centrifugation, 200 μL of the supernatant was transferred to a clean tube and dried under a nitrogen stream at 40 °C. The residue was reconstituted using 100 μL of 70% methanol supplemented with 0.1% formic acid, and a 10-μL aliquot was injected into the LC–MS/MS system.

[4] = Recovery of ginsenosides from urine and feces for 48 h after RGE, amoxicillin with or without LAB; settings: feces 48 h after single oral RGE 2 g/kg; Amoxicillin + LAB vs amoxicillin
Experimental: (§1) Mice received amoxicillin (n = 12, 20 mg/kg, dissolved in water at 2 mL/kg, twice daily) for 3 days via oral gavage. From the 4th day, mice from the LAB + amoxicillin treatment group received LAB (2 g/kg suspended in water at 2 mL/kg, once daily) for 7 days via oral gavage. Mice from the amoxicillin treatment group received water (2 mL/kg, once daily) for 7 days via oral gavage.

[5] = Pharmacokinetics of ginsenosides after single oral RGE after amoxicillin with or without repeated LAB treatment; settings: single oral RGE 2 g/kg; for AUC: AUC 0 to 48 h
Experimental: as §1
Blood sampling was performed using a sparse sampling method via the right or left retro-orbital vein under isoflurane anesthesia at 0, 2, 4, and 8 h after the RGE administration through the heparinized capillary tube. […] After centrifugation of the blood samples at 10,000× g for 1 min, 30 μL aliquots of plasma were stored at −80 °C until the analysis of the ginsenosides. Subsequent protocols were identical to the amoxicillin treated group.
Pharmacokinetic parameters were calculated using WinNonlin (version 5.1, Pharsight, Mountain View, CA, USA) by a non-compartmental analysis.

[6] = Pharmacokinetics of ginsenosides after single oral RGE with or without amoxicillin treatment; assay type: in vivo, mice; settings: single oral RGE 2 g/kg; for AUC: AUC 0 to 48 h
Experimental: Male ICR mice (7-weeks-year-old, 30–35 g) were purchased from Samtako Co. (Osan, Kyunggi-do, Korea). Animals were acclimatized for 1 week in an animal facility at Kyungpook National University. Food and water were available ad libitum.
Before blood sampling, mice were anesthetized using isoflurane (isoflurane vaporizer to 2% with oxygen flow at 0.8 L/min) for 5 min.

[7] = design: method as in PMID 32023909; settings: cited from earlier work
[8] = Amoxicillin 3 days pretreatment
[9] = Amoxicillin 3 days then water 7 days

- Metabolite formation on incubation of single ginsenoside with LAB [1]: produced GRh1
- Alteration of ginsenoside by fermentation of RGE with LAB [2]: most significant decrease
- Fecal recovery, change by the amoxicillin treatment [3]: increased
- Ginsenosides identified in urine [3]: identified in urine
- Fecal recovery, change by LAB treatment [4]: significantly decreased
Compound: CC(C)=CCC[C@](C)(O[C@@H]1O[C@H](CO)[C@@H](O)[C@H](O)[C@H]1O)[C@H]1CC[C@]2(C)[C@@H]1[C@H](O)C[C@@H]1[C@@]3(C)CC[C@H](O)C(C)(C)[C@@H]3[C@@H](O[C@@H]3O[C@H](CO)[C@@H](O)[C@H](O)[C@H]3O[C@@H]3O[C@@H](C)[C@H](O)[C@@H](O)[C@H]3O)C[C@]12C [GRe]

- Metabolite formation on incubation of single ginsenoside with LAB [1]: produced GRh1
- Alteration of ginsenoside by fermentation of RGE with LAB [2]: gradual decrease
- Fecal recovery, change by the amoxicillin treatment [3]: increased
- Fecal recovery, change by LAB treatment [4]: significantly decreased
Compound: CC(C)=CCC[C@](C)(O)[C@H]1CC[C@]2(C)[C@@H]1[C@H](O)C[C@@H]1[C@@]3(C)CC[C@H](O)C(C)(C)[C@@H]3[C@@H](O[C@@H]3O[C@H](CO)[C@@H](O)[C@H](O)[C@H]3O[C@@H]3O[C@H](CO)[C@@H](O)[C@H](O)[C@H]3O)C[C@]12C [GRf]

- Metabolite formation on incubation of single ginsenoside with LAB [1]: produced GRh1
- Alteration of ginsenoside by fermentation of RGE with LAB [2]: gradual decrease
- Fecal recovery, change by the amoxicillin treatment [3]: increased
- Ginsenosides identified in urine [3]: identified in urine
- Fecal recovery, change by LAB treatment [4]: significantly decreased
Compound: CC(C)=CCC[C@](C)(O[C@@H]1O[C@H](CO)[C@@H](O)[C@H](O)[C@H]1O)[C@H]1CC[C@]2(C)[C@@H]1[C@H](O)C[C@@H]1[C@@]3(C)CC[C@H](O)C(C)(C)[C@@H]3[C@@H](O[C@@H]3O[C@H](CO)[C@@H](O)[C@H](O)[C@H]3O)C[C@]12C [GRg1]

Second part, the compound before the results:

Compound: CC(C)=CCC[C@](C)(O[C@@H]1O[C@H](CO)[C@@H](O)[C@H](O)[C@H]1O)[C@H]1CC[C@]2(C)[C@@H]1[C@H](O)C[C@@H]1[C@@]3(C)CC[C@H](O[C@@H]4O[C@H](CO)[C@@H](O)[C@H](O)[C@H]4O)C(C)(C)[C@@H]3CC[C@]12C [GF2]
- Metabolite formation on incubation of single ginsenoside with LAB [1]: the highest among the ginsenoside formation rate
- Alteration of ginsenoside by fermentation of RGE with LAB [2]: gradual decrease
- Fecal recovery, change by the amoxicillin treatment [3]: significantly decreased
- Fecal recovery, change by LAB treatment [4]: remained similar
- Plasma exposure / pharmacokinetic parameters, LAB treatment compared with amoxicillin group [5]: increased

Compound: CC(C)=CCC[C@](C)(O[C@@H]1O[C@H](CO[C@@H]2O[C@H](CO)[C@@H](O)[C@H](O)[C@H]2O)[C@@H](O)[C@H](O)[C@H]1O)[C@H]1CC[C@]2(C)[C@@H]1[C@H](O)C[C@@H]1[C@@]3(C)CC[C@H](O[C@@H]4O[C@H](CO)[C@@H](O)[C@H](O)[C@H]4O[C@@H]4O[C@H](CO)[C@@H](O)[C@H](O)[C@H]4O)C(C)(C)[C@@H]3CC[C@]12C [GRb1, 20(S)-ginsenosides Rb1]
- AUC ([6]; male, ICR, mouse, plasma, po, 2 g/kg, Amoxicillin 3 days pretreatment, read-out: AUC): 926 ± 439 ng·h/mL
- Cmax ([6]; male, ICR, mouse, plasma, po, 2 g/kg, Amoxicillin 3 days pretreatment, read-out: Cmax): 28.2 ± 12.9 ng/mL
- Half-Life ([6]; male, ICR, mouse, plasma, po, 2 g/kg, Amoxicillin 3 days pretreatment, read-out: Half-life (converted)): 21.7 ± 3.6 h
- MRT ([6]; male, ICR, mouse, plasma, po, 2 g/kg, Amoxicillin 3 days pretreatment, read-out: MRT): 19.3 ± 1.4 h
- AUC ([6]; male, ICR, mouse, plasma, po, 2 g/kg, Control, plasma, n = 3, read-out: AUC): 896 ± 81.3 ng·h/mL
- Cmax ([6]; male, ICR, mouse, plasma, po, 2 g/kg, Control, plasma, read-out: Cmax): 41.3 ± 14.3 ng/mL
- Half-Life ([6]; male, ICR, mouse, plasma, po, 2 g/kg, Control, plasma, read-out: Half-Life (converted)): 25.9 ± 4.7 h
- MRT ([6]; male, ICR, mouse, plasma, po, 2 g/kg, Control, plasma, read-out: MRT): 16.3 ± 2.7 h
- Tmax ([6]; male, ICR, mouse, plasma, Amoxicillin 3 days pretreatment, read-out: Tmax): 8 h
- Plasma concentrations, amoxicillin treatment compared to the control group [6]: not significantly affected
- Ratio of liver AUC to plasma AUC [7]: < 0.2
- Alteration of ginsenoside by fermentation of RGE with LAB [2]: most significant decrease
- Fecal recovery, change by the amoxicillin treatment [3]: increased
- Ginsenosides identified in urine [3]: identified in urine
- Fecal recovery, change by LAB treatment [4]: significantly decreased
- AUC ([5]; male, ICR, mouse, plasma, po, 2 g/kg, AUC, Amoxicillin 3 days then water 7 days): 752 ± 478 ng·h/mL
- AUC ([5]; male, ICR, mouse, plasma, po, 2 g/kg, AUC, Amoxicillin + LAB (LAB 2 g/kg once daily 7 days)): 622 ± 164 ng·h/mL
- Cmax ([5]; male, ICR, mouse, plasma, po, 2 g/kg, Cmax, Amoxicillin 3 days then water 7 days): 23.7 ± 11.6 ng/mL
- Cmax ([5]; male, ICR, mouse, plasma, po, 2 g/kg, Cmax, Amoxicillin + LAB): 26.2 ± 4.6 ng/mL
- Half-Life ([5]; male, ICR, mouse, plasma, po, 2 g/kg, Half-Life, Amoxicillin 3 days then water 7 days): 20.1 ± 2.2 h
- Half-Life ([5]; male, ICR, mouse, plasma, po, 2 g/kg, Half-life, Amoxicillin + LAB): 16.2 ± 0.9 h
- MRT ([5]; male, ICR, mouse, plasma, po, 2 g/kg, MRT, Amoxicillin 3 days then water 7 days): 18.6 ± 1.6 h
- MRT ([5]; male, ICR, mouse, plasma, po, 2 g/kg, MRT, Amoxicillin + LAB): 16.9 ± 1 h
- Tmax ([5]; male, ICR, mouse, plasma, po, 2 g/kg, Tmax, Amoxicillin 3 days then water 7 days): 3.3 ± 1.2 h
- Tmax ([5]; male, ICR, mouse, plasma, po, 2 g/kg, Tmax, Amoxicillin + LAB): 4.7 ± 3.1 h
- Detection in mouse plasma following repeated LAB administration in addition to amoxicillin [5]: detected
- Plasma exposure / pharmacokinetic parameters, LAB treatment compared with amoxicillin group [5]: not different

Compound: CC(C)=CCC[C@](C)(O[C@@H]1O[C@H](CO[C@@H]2OC[C@H](O)[C@H](O)[C@H]2O)[C@@H](O)[C@H](O)[C@H]1O)[C@H]1CC[C@]2(C)[C@@H]1[C@H](O)C[C@@H]1[C@@]3(C)CC[C@H](O[C@@H]4O[C@H](CO)[C@@H](O)[C@H](O)[C@H]4O[C@@H]4O[C@H](CO)[C@@H](O)[C@H](O)[C@H]4O)C(C)(C)[C@@H]3CC[C@]12C [GRb2]
- Cmax [6, 8]: 10.3 ± 4.6 ng/mL
- Half-Life [6, 8]: 25.1 ± 2.7 h
- MRT [6, 8]: 21.4 ± 1.6 h
- Tmax [6, 8]: 13.3 ± 9.2 h
- AUC [6, 8]: 391.5 ± 192 ng·h/mL
- Cmax ([6]; Control, plasma): 12.5 ± 2.1 ng/mL
- Half-Life ([6]; Control, plasma): 24.6 ± 6.7 h
- MRT ([6]; Control, plasma): 19.4 ± 1.6 h
- Tmax ([6]; Control, plasma): 8.0 ± 0.0 h
- AUC ([6]; Control, plasma, n = 3): 361.4 ± 74.3 ng·h/mL
- Plasma concentrations, amoxicillin treatment compared to the control group [6]: not significantly affected
- Metabolite formation on incubation of single ginsenoside with LAB [1]: produced GRg3 with the highest formation rate
- Ratio of liver AUC to plasma AUC [7]: < 0.2
- Alteration of ginsenoside by fermentation of RGE with LAB [2]: most significant decrease
- Fecal recovery, change by the amoxicillin treatment [3]: increased
- Ginsenosides identified in urine [3]: identified in urine
- Fecal recovery, change by LAB treatment [4]: significantly decreased
- Cmax [5, 9]: 10.9 ± 5.2 ng/mL
- Half-Life [5, 9]: 19.2 ± 2.3 h
- MRT [5, 9]: 20.2 ± 1.7 h
- Tmax [5, 9]: 4.0 ± 0.0 h
- AUC [5, 9]: 385.9 ± 243.6 ng·h/mL
- AUC ([5]; Amoxicillin + LAB (LAB 2 g/kg once daily 7 days)): 419.2 ± 108.6 ng·h/mL
- Cmax ([5]; Amoxicillin + LAB): 15.1 ± 3.4 ng/mL
- Half-Life ([5]; Amoxicillin + LAB): 21.6 ± 1.7 h
- MRT ([5]; Amoxicillin + LAB): 18.1 ± 0.9 h
- Tmax ([5]; Amoxicillin + LAB): 8.0 ± 0.0 h
- Detection in mouse plasma following repeated LAB administration in addition to amoxicillin [5]: detected
- Plasma exposure / pharmacokinetic parameters, LAB treatment compared with amoxicillin group [5]: not different
